According to US20070184490A1, “Neuronal nicotinic receptor ligands and their use” (priority 2006, published 2007):
pKi: −log10 of the molar value.

Assays:
[1] = molecular target: T1, α4β2 neuronal nicotinic receptor subtype (Rattus norvegicus, UniProt P09483+P12390); test: [3H]-cytisine binding assay, rat brain membrane preparation; conditions: [3H]-cytisine binding site; read-out: binding affinity Ki
T1 construct: Membrane enriched fractions from rat brain minus cerebellum; tissue ABS Inc., Wilmington, DE; host or cells: rat brain minus cerebellum, membrane enriched fractions
T1 sequence (P09483 31-630): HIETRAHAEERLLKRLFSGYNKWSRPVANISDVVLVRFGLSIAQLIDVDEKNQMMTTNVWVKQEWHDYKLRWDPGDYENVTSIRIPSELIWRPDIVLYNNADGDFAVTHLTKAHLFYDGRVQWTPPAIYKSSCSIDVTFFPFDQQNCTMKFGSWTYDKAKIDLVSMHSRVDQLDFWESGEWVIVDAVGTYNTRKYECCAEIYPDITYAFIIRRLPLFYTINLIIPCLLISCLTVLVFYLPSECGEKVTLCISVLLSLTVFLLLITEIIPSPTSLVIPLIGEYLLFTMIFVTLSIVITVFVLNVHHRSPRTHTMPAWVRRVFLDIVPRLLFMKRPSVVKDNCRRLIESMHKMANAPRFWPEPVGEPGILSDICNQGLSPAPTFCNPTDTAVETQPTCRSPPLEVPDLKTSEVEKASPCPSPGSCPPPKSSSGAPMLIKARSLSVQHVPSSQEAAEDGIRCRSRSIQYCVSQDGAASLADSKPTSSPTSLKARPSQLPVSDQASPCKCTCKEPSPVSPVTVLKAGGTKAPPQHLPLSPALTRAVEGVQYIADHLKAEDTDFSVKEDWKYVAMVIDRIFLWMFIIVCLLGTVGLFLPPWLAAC
T1 sequence (P12390 25-500): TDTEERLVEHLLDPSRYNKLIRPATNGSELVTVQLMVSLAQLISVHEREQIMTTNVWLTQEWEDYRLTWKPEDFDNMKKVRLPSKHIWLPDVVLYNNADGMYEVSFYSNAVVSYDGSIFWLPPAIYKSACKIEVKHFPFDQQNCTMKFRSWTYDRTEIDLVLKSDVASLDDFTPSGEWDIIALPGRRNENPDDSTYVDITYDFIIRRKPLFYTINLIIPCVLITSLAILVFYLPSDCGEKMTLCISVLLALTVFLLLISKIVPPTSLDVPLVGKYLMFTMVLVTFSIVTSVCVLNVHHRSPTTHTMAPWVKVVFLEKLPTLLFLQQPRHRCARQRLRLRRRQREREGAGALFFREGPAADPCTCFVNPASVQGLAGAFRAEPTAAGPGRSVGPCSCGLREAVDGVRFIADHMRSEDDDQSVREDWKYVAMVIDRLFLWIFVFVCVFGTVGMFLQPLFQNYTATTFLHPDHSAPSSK
Experimental: The method can be accomplished under any suitable binding conditions. […] IC50 and Ki values can be determined from data obtained in the [^3H]-cytisine binding assay.
Binding conditions were modified from the procedures described in Pabreza L A, Dhawan, S, Kellar K J, [^3H]-Cytisine Binding to Nicotinic Cholinergic Receptors in Brain, Mol. Pharm. 39: 9-12, 1991. Membrane enriched fractions from rat brain minus cerebellum (ABS Inc., Wilmington, DE) were slowly thawed at 4° C., washed and resuspended in 30 volumes of BSS-Tris buffer (120 mM NaCl/5 mM KCI/2 mM CaCl2/2 mM MgCl2/50 mM Tris-Cl, pH 7.4, 4° C.). Samples containing 100-200 μg of protein and 0.75 nM [^3H]-cytisine (30 Ci/mmol; Perkin Elmer/NEN Life Science Products, Boston, MA) were incubated in a final volume of 500 μL for 75 minutes at 4° C. Seven log-dilution concentrations of each compound were tested in duplicate. Non-specific binding was determined in the presence of 10 μM (−)-nicotine. Bound radioactivity was isolated by vacuum filtration onto prewetted glass fiber filter plates (Millipore, Bedford, MA) using a 96-well filtration apparatus (Packard Instruments, Meriden, CT) and were then rapidly rinsed with 2 mL of ice-cold BSS buffer (120 mM NaCl/5 mM KCl/2 mM CaCl2/2 mM MgCl2). Packard MicroScint-20® scintillation cocktail (40 μL) was added to each well and radioactivity determined using a Packard TopCount® instrument. The IC50 values were determined by nonlinear regression in Microsoft Excel® software. Ki values were calculated from the IC50s using the Cheng-Prusoff equation, where Ki=IC50/1+[Ligand]/KD].

adults with ADHD = conditions: transdermal, 32 adults; cited from earlier work

Structure (SMILES) | pKi [1] | efficacy in treating ADHD (adults with ADHD)
Clc1ccc(-c2cc(OC[C@@H]3CCCN3)cnc2Cl)cc1 | 10.40 | 
c1ccc2ncc(N3CC4CNCC4C3)cc2c1 (stereo not shown) | 8.82 | 
c1cncc(N2CC[C@@H]3CNC[C@@H]32)c1 [(R,R)-1-(pyridin-3-yl)-octahydro-pyrrolo[3,4-b]pyrrole] | 8.06 | 
Cc1cc([C@@H]2CCCN2C)on1 [ABT-418] |  | effective in treating ADHD
